Calls of active or inactive are those of the source. The rule behind the calls is not given here.
How the values were obtained:
[1] = molecular target: T1, Fatty acid synthase (Plasmodium falciparum) (UniProt Q965D7); test: Inhibition of Plasmodium falciparum FabZ assessed as trans-2-octenoyl-acyl carrier protein level by MALDI-TOF mass spectrometry
T1 sequence (whole entry): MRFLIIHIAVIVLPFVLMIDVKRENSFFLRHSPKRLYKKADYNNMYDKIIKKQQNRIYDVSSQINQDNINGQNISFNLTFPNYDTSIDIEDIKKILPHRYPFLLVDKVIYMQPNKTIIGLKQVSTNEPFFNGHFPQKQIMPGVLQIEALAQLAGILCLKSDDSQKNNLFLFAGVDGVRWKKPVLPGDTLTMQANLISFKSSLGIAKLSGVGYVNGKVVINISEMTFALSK

Plasmodium falciparum [2] = test: Antiparasitic activity against Plasmodium falciparum in RBCs; type: functional, organism-based
[3] = Inhibition of Plasmodium falciparum recombinant FabI A217V mutant
[4] = molecular target: T2, Enoyl-acyl-carrier protein reductase (Plasmodium falciparum, UniProt Q965D5); test: Inhibition of Plasmodium falciparum recombinant FabI
T2 sequence (Q965D5 whole entry): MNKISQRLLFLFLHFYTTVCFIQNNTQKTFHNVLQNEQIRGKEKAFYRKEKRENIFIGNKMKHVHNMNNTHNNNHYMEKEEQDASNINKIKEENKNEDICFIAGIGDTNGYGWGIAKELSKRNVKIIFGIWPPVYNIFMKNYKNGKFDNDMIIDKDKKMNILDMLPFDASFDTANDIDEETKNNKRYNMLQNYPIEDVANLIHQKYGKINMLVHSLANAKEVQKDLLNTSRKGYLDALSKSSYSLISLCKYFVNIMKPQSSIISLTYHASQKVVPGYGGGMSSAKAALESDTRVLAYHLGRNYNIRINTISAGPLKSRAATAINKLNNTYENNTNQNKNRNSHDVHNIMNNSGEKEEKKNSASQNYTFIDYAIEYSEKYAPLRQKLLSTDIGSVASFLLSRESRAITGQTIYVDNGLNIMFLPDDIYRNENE

Plasmodium falciparum [5] = test: Antiparasitic activity against Plasmodium falciparum; type: functional, organism-based
Plasmodium falciparum [6] = test: Inhibition of Plasmodium falciparum FabB/FabF assessed as C6-acyl carrier protein level by MALDI-TOF mass spectrometry

O=C(CC(=O)C(F)(F)F)c1ccc([N+](=O)[O-])cc1
Activity [1]: Active

Oc1cc(Cl)ccc1Oc1ccc(Cl)cc1Cl [TRICLOSAN]
IC50 (Plasmodium falciparum [2]): 700 nM | Ki [3]: 232 nM | IC50 [4]: 70 nM

Oc1ccc(Cl)cc1Oc1ccc(Cl)c2cccnc12
Activity [1]: Active

C/C=C/C/C=C/CCC(=O)[C@H]1O[C@H]1C(N)=O [CERULENIN]
IC50 (Plasmodium falciparum [5]): 20000 nM | Activity (Plasmodium falciparum [6]): Active
